The numbers were not newly measured in EP1783518B1, “Functionalized dyes and use thereof in ophthalmic lens material” (Ophtec B.V., priority 2005, dated 2007), which cites them from elsewhere.

Converted amounts (≈) assume the structure as drawn.

For the compound `Cc1cc(N=Nc2ccc(N=Nc3ccc(S(=O)(=O)O)cc3)cc2)cc(C(=O)O)c1O.[Na+]` [Mordant Orange 10], the solubility in water was 40 mg/mL.
Regarding `Cc1cc(N=Nc2ccc(N=Nc3ccccc3)cc2)ccc1O` [Disperse Yellow 7, 4-[[p-(phenylazo)phenyl]azo]-o-cresol], the “solubility in EGME” value (ethylene glycol monomethyl ether (EGME)) is 80 mg/mL (≈ 253 mM).
For the compound `O=C(O)c1cc(N=Nc2ccc(N=Nc3ccc(S(=O)(=O)[O-])cc3)cc2)ccc1[O-].[Na+].[Na+]` [Mordant Orange 6], the solubility in water was 40 mg/mL.
